Experiments:
[1] = test system: Klebsiella pneumoniae Y-4; assay: Growth-inhibition test on clinically isolated strain (agar, about 10^8 cells/ml); format: cell-based; parameters: key: (+) means that the test bacterium grew; (-) means that the test bacterium did not grow; conditions: Methicillin sodium: 3200,1600,800,400,200,100,50,25,12.5,0 μg/ml, 18 hours, 37° C
Experimental: (§1) Heart Infusion agar containing a prescribed amount of Methicillin sodium or T-1551 Na was inoculated with the test bacterium at a rate of about 10^8 cells/ml. After incubation for 18 hours at 37° C., the growth of the test bacterium was inspected.

[2] = test system: Pseudomonas aeruginosa S-111; assay: as above; format: cell-based; parameters: key: (+) means that the test bacterium grew; (-) means that the test bacterium did not grow; conditions: Methicillin sodium 3200,1600,800,400,200,100,50,25,12.5,0 μg/ml, 18 hours, 37° C
Experimental: as §1

Escherichia coli TK-3 [3] = assay: as above; format: cell-based; parameters: key: (+) means that the test bacterium grew; (-) means that the test bacterium did not grow; conditions: Methicillin sodium: 3200,1600,800,400,200,100,50,25,12.5,0 μg/ml, 18 hours, 37° C
Experimental: as §1

K. pneumoniae Y-4 = assay: Effect of combined use on experimental infection in mice (protection); format: in vivo, mice (ICR strain) infected with K. pneumoniae; conditions: challenge dose 5.7 × 10^7 cells/mouse, peritoneal; subcutaneous administration one and two hours after inoculation
Text: (§2) Male mice (5 mice per group) of the ICR strain, 4 weeks of age, were peritoneally inoculated with the prescribed number of pathogenic bacteria suspended in 5% mucin. After one hour and two hours following the inoculation, test preparations shown in Table 5 were subcuataneously administered to examine the protection effect.

K. pneumoniae Y-53 = assay: as above; format: in vivo, mice (ICR strain) infected with K. pneumoniae; conditions: challenge dose 1.0 × 10^7 cells/mouse, peritoneal; subcutaneous administration one and two hours after inoculation
Text: as §2

[4] = test system: Klebsiella pneumoniae Y-4; assay: Minimum inhibitory concentration; format: cell-based; conditions: Y4; Klebsiella pneumoniae Y-4 strain
Experimental: (§3) The minimum inhibitory concentration of T-1551 Na or Methicillin sodium against Escherichia coli TK-3 strain or Kleosiella pneumoniae Y-4 strain was greater than 800 μg/ml in each case.

Escherichia coli TK-3 [5] = assay: Minimum inhibitory concentration; format: cell-based; conditions: TK3; Escherichia coli TK-3 strain
Experimental: as §3

[6] = test system: Pseudomonas aeruginosa GN 3345; assay: Growth-inhibition test with potassium clavulanate; format: cell-based; parameters: key: (+) means that the test bacterium grew; (-) means that the test bacterium did not grow; conditions: potassium clavulanate by line b219-b229: 100,(unlabelled),25,(unlabelled),12.5,(unlabelled),3.1,(unlabelled),0.4,(unlabelled),0 μg/ml
Experimental: as §1
(§4) The same operation as in Test Example 1 was repeated, except that the Methicillin sodium was replaced by potassium clavulanate and the test bacteria were replaced by those shown in Tables 6, 7 and 8, to obtain the results shown in Tables 6, 7 and 8.

[7] = test system: Klebsiella pneumoniae GN 69; assay: Growth-inhibition test with potassium clavulanate; format: cell-based; parameters: key: (+) means that the test bacterium grew; (-) means that the test bacterium did not grow; conditions: potassium clavulanate 100,25,6.25,1.6,0.4,0 μg/ml
Experimental: as §1, §4

Escherichia coli GN 6299 = assay: Growth-inhibition test with potassium clavulanate; format: cell-based; parameters: key: (+) means that the test bacterium grew; (-) means that the test bacterium did not grow; conditions: potassium clavulanate by line b171,b173-b182: 100,(unlabelled),25,(unlabelled),6.25,(unlabelled),1.6,(unlabelled),0.4,(unlabelled),0 μg/ml
Experimental: as §1, §4

[8] = T-1551 Na unlabelled column between 12.5 and 3.1 μg/ml
[9] = T-1551 Na unlabelled column between 50 and 12.5 μg/ml
[10] = T-1551 Na unlabelled column between 200 and 50 μg/ml
[11] = T-1551 Na unlabelled column between 800 and 200 μg/ml

MIC [4]: > 800 mg/L
MIC (Escherichia coli TK-3 [5]): > 800 mg/L
Compound: CCN1CCN(C(=O)N[C@@H](C(=O)N[C@@H]2C(=O)N3C(C(=O)O)=C(CSc4nnnn4C)CS[C@H]23)c2ccc(O)cc2)C(=O)C1=O [T-1551 Na, sodium 7-[D(-)-α-(4-ethyl-2,3-dioxo-1-piperazinylcarbonylamino)-p-hydroxyphenylacetamide]-3-[5-(1-methyl-1,2,3,4-tetrazolyl)thiomethyl]-Δ^3-cephem-4-carboxylate]
growth of the test bacterium ([1]; T-1551 Na 0.78 μg/ml): +
growth of the test bacterium ([1]; T-1551 Na 1.56 μg/ml): +
growth of the test bacterium ([1]; T-1551 Na 3.13 μg/ml): +
growth of the test bacterium ([1]; T-1551 Na 6.25 μg/ml): +
growth of the test bacterium ([1]; T-1551 Na 12.5 μg/ml): +
growth of the test bacterium ([1]; T-1551 Na 25 μg/ml): +
growth of the test bacterium ([1]; T-1551 Na 50 μg/ml): +
growth of the test bacterium ([1]; T-1551 Na 100 μg/ml): +
growth of the test bacterium ([1]; T-1551 Na 200 μg/ml): +
growth of the test bacterium ([2]; T-1551 Na 0.78 μg/ml): +
growth of the test bacterium ([2]; T-1551 Na 1.56 μg/ml): +
growth of the test bacterium ([2]; T-1551 Na 3.13 μg/ml): +
growth of the test bacterium ([2]; T-1551 Na 6.25 μg/ml): +
growth of the test bacterium ([2]; T-1551 Na 12.5 μg/ml): +
growth of the test bacterium ([2]; T-1551 Na 25 μg/ml): +
growth of the test bacterium ([2]; T-1551 Na 50 μg/ml): +
growth of the test bacterium ([2]; T-1551 Na 100 μg/ml): +
growth of the test bacterium ([2]; T-1551 Na 200 μg/ml): +
growth of the test bacterium (Escherichia coli TK-3 [3]; T-1551 Na 0.78 μg/ml): +
growth of the test bacterium (Escherichia coli TK-3 [3]; T-1551 Na 1.56 μg/ml): +
growth of the test bacterium (Escherichia coli TK-3 [3]; T-1551 Na 3.13 μg/ml): +
growth of the test bacterium (Escherichia coli TK-3 [3]; T-1551 Na 6.25 μg/ml): +
growth of the test bacterium (Escherichia coli TK-3 [3]; T-1551 Na 12.5 μg/ml): +
growth of the test bacterium (Escherichia coli TK-3 [3]; T-1551 Na 25 μg/ml): +
growth of the test bacterium (Escherichia coli TK-3 [3]; T-1551 Na 50 μg/ml): +
growth of the test bacterium (Escherichia coli TK-3 [3]; T-1551 Na 100 μg/ml): +
growth of the test bacterium (Escherichia coli TK-3 [3]; T-1551 Na 200 μg/ml): +
ED50 (protection effect) (K. pneumoniae Y-4): > 26.8 mg/mouse
ED50 (protection effect) (K. pneumoniae Y-53): > 10.0 mg/mouse
growth of the test bacterium ([6]; T-1551 Na 3.1 μg/ml): +
growth of the test bacterium ([6]; T-1551 Na 12.5 μg/ml): +
growth of the test bacterium ([6]; T-1551 Na 50 μg/ml): +
growth of the test bacterium ([6]; T-1551 Na 200 μg/ml): +
growth of the test bacterium ([6]; T-1551 Na 800 μg/ml): -
growth of the test bacterium [6, 8]: +
growth of the test bacterium [6, 9]: +
growth of the test bacterium [6, 10]: +
growth of the test bacterium [6, 11]: -
growth of the test bacterium ([7]; T-1551 Na 0.2 μg/ml): +
growth of the test bacterium ([7]; T-1551 Na 0.8 μg/ml): +
growth of the test bacterium ([7]; T-1551 Na 3.1 μg/ml): +
growth of the test bacterium ([7]; T-1551 Na 12.5 μg/ml): +
growth of the test bacterium ([7]; T-1551 Na 50 μg/ml): +
growth of the test bacterium ([7]; T-1551 Na 200 μg/ml): +
growth of the test bacterium ([7]; T-1551 Na 800 μg/ml): -
growth of the test bacterium (Escherichia coli GN 6299; T-1551 Na 0.2 μg/ml): +
growth of the test bacterium (Escherichia coli GN 6299; T-1551 Na 0.8 μg/ml): +
growth of the test bacterium (Escherichia coli GN 6299; T-1551 Na 3.1 μg/ml): +
growth of the test bacterium (Escherichia coli GN 6299; T-1551 Na 12.5 μg/ml): +
growth of the test bacterium (Escherichia coli GN 6299; T-1551 Na 50 μg/ml): +
growth of the test bacterium (Escherichia coli GN 6299; T-1551 Na 200 μg/ml): +
growth of the test bacterium (Escherichia coli GN 6299; T-1551 Na 800 μg/ml): +
growth of the test bacterium (Escherichia coli GN 6299; T-1551 Na unlabelled column between 0.8 and 0.2 μg/ml): +
growth of the test bacterium (Escherichia coli GN 6299; T-1551 Na unlabelled column between 3.1 and 0.8 μg/ml): +
growth of the test bacterium (Escherichia coli GN 6299; [8]): +
growth of the test bacterium (Escherichia coli GN 6299; [9]): +
growth of the test bacterium (Escherichia coli GN 6299; [10]): +
growth of the test bacterium (Escherichia coli GN 6299; [11]): +

Reference: patent US4428936A, “Antibacterial composition for medical use” (Toyama Chemical Co., Ltd., priority 1978, dated 1984)
